According to patent US8212016B2, “NPC1L1 orthologues” (Schering Corporation, priority 2006, dated 2012):
Read-outs that look alike come from different tables or passages of the source.

Assays:
rat NPC1L1 = target: T1, rat NPC1L1 (Rattus norvegicus, UniProt Q6T3U3, A349V/E317P/G318E/K324N/L297S); assay: Fluorescence NPC1L1 binding assay, HEK-293 cells, BODIPY-labeled compound 1; conditions: for Ki: read-out: Ki Rat NPC1L1
T1 construct: expressed in transfected cells
Experimental: (§1) Cell Culture and Membrane Preparation. Each plasmid pCR3.1 harboring NPC1L1 was prepared using standard molecular biology protocols. Stable cell lines expressing human, rhesus monkey, mouse, rat, hamster, canine or rabbit NPC1L1 were generated using Lipofectamine 2000 transfection reagent in HEK-293 cells according to the manufacturer's protocol. Cells were maintained in DMEM supplemented with 10% FBS, 100 U/ml pen/strep, and 500 μg/ml geneticin at 37° C., 5% CO2. All cell culture reagents were obtained from Invitrogen Life Technologies, (Carlsbad, Calif.). Cell membranes were prepared by lysing cells in 5 mM HEPES with protease inhibitors (Complete™ Protease Inhibitor Cocktail Tablets; Roche Diagnostics Corp., Indianapolis Ind.) for 15 min at 4° C. A membrane pellet was obtained by centrifuging the cell lysates at 12,000×g for 25 min. The membranes were resuspended in 5 mM HEPES with protease inhibitors and triturated with a 21G needle.
(§2) Fluorescence. Cells were plated into 384-well black/clear plates (BD Biosciences, Bedford Mass.) for binding experiments the following day. The media was aspirated. […] Media (20 μl) containing the indicated concentration of compound was then added to the wells. […] The binding reaction was allowed to proceed for 4 hours at 37° C. Subsequently the media was aspirated and the cells washed once with PBS.

human NPC1L1 [1] = target: T2, human NPC1L1 (Homo sapiens, UniProt Q9UHC9, T1073A); assay: as above; conditions: for Ki: read-out: Ki Human NPC1L1
T2 construct: expressed in transfected cells
T2 sequence (Q9UHC9 22-1332 isoform Q9UHC9-2 T1046A): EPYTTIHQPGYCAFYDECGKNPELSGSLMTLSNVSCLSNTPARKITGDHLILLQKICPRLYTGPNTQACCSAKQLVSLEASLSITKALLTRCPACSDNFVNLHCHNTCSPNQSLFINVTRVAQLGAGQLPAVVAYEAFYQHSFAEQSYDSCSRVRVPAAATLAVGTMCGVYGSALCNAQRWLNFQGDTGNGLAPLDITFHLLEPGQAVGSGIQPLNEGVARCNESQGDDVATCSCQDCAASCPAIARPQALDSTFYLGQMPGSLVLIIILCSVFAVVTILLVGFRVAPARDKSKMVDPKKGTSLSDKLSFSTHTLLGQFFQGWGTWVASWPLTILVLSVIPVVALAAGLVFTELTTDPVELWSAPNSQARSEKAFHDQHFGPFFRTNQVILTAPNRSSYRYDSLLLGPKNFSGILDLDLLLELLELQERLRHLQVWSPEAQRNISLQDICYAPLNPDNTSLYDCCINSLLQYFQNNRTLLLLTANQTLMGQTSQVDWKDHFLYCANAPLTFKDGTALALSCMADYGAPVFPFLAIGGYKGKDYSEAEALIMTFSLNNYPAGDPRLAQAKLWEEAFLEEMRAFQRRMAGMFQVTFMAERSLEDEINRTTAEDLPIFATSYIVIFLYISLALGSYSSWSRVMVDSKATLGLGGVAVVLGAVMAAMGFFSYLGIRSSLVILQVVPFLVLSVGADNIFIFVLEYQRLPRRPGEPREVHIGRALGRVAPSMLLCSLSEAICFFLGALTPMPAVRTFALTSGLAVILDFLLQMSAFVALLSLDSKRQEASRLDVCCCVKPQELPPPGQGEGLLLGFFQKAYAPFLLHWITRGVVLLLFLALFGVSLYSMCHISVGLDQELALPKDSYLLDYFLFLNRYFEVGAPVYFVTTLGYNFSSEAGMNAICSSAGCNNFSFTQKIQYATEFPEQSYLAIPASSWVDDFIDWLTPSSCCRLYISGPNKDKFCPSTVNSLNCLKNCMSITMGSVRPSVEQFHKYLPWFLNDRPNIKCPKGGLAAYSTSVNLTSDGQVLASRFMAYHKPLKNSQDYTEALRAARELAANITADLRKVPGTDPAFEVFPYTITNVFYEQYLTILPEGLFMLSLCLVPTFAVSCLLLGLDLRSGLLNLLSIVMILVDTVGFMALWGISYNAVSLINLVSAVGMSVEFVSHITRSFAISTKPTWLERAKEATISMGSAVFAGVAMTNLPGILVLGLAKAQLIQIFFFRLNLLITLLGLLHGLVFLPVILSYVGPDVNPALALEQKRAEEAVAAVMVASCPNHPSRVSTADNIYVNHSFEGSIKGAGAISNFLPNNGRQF
Experimental: as §1, §2

canine NPC1L1 = canine NPC1L1 (Canis lupus familiaris, UniProt A0MJA4); assay: as above; conditions: for Ki: read-out: Ki Dog NPC1L1
Experimental: as §1, §2

rabbit NPC1L1 = rabbit NPC1L1 (Oryctolagus cuniculus, UniProt A0MJA7); assay: as above; conditions: for Ki: read-out: Ki Rabbit NPC1L1
Experimental: as §1, §2

hamster NPC1L1 = hamster NPC1L1 (Mesocricetus auratus, UniProt A0MJA8); assay: as above; conditions: for Ki: read-out: Ki Hamster NPC1L1
Experimental: as §1, §2

human NPC1L1 [2] = target: T2, human NPC1L1; assay: Radioligand binding of [3H]-glucuronidated ezetimibe (compound 4) to cell membranes
Experimental: (§3) Cell Culture and Membrane Preparation. […] Cells were maintained in DMEM supplemented with 10% FBS, 100 U/ml pen/strep, and 500 μg/ml geneticin at 37° C., 5% CO2. All cell culture reagents were obtained from Invitrogen Life Technologies, (Carlsbad, Calif.). Cell membranes were prepared by lysing cells in 5 mM HEPES with protease inhibitors (Complete™ Protease Inhibitor Cocktail Tablets; Roche Diagnostics Corp., Indianapolis Ind.) for 15 min at 4° C. A membrane pellet was obtained by centrifuging the cell lysates at 12,000×g for 25 min. […] Radioligand. […] Natl. Acad. Sci. […] Reactions were performed in binding buffer (5 mM HEPES, 5.5 mM glucose, 117 mM NaCl and 5.4 mM KCl, pH 7.4). Cell membranes (50 μg in 20 μl) were added to each well. […] Binding reactions were incubated for 2 hours at 37° C. Samples were transferred to Unifilter-96 GF/C plates (Perkin Elmer, Wellesley Mass.) and filtered using a Brandel harvester (Gaithersburg Md.). […] Liquid scintillant (50 μl; Microscint-20, Perkin Elmer, Wellesley Mass.) was added and the bound radioactivity was measured using a microplate scintillation counter.

monkey NPC1L1 [3] = target: T3, monkey NPC1L1 (Macaca mulatta, UniProt A0MJA5); assay: as above; parameters: species or system rhesus monkey
Experimental: as §3

monkey NPC1L1 [4] = target: T3, monkey NPC1L1; assay: Fluorescence NPC1L1 binding assay, HEK-293 cells, BODIPY-labeled compound 1; parameters: species or system rhesus monkey; conditions: for Ki: read-out: Ki Monkey NPC1L1
Experimental: as §1, §2

mouse NPC1L1 = target: T4, mouse NPC1L1 (Mus musculus, UniProt Q6T3U4, N476K); assay: Fluorescence NPC1L1 binding assay, HEK-293 cells, fluorescent compound 2 as ligand; conditions: for Kd: saturation binding, mouse NPC1L1; for Ki: read-out: Ki Mouse NPC1L1
T4 construct: expressed in transfected cells
Experimental: as §1, §2
In an effort to show binding to mouse NPC1L1, several related ezetimibe analogs were examined as possible alternatives to fluorescently-labeled (BODIPY) ezetimibe glucuronide (compound 1) in the binding assay. Compound 2, which is a fluorescently labeled synthetic precursor for fluorescently-labeled (BODIPY) ezetimibe glucuronide (compound 1; Burnett et al., Bioorganic and Medicinal Chemistry Letters 12:315-318 (2002)), was identified as a viable option for detection of mouse NPC1L1 binding. Compound 2 contains a methyl ester substitution for the carboxylic acid on the glucuronide portion of the molecule (compound structures shown in FIG. 4A).

[5] = tested on: plasma and liver cholesterol; assay: Percent cholesterol lowering in plasma and liver; format: in vivo; conditions: hamster
cholesterol = assay: In vivo cholesterol lowering activity
[6] = tested on: ^14C-cholesterol absorption; assay: Acute cholesterol absorption assay; format: in vivo; conditions: intraduodenal
Experimental: Acute cholesterol absorption assay. ^14C-cholesterol absorption was determined acutely in rats using conditions previously described (Van Heek et al., J. Pharmacol. Exp. Ther. 283: 157-163 (1997)). Compounds were dissolved in rat bile and delivered (1.0 ml) intraduodenally by bolus injection via an intestinal catheter, followed by 1.0 ml saline rinse (0.9%). Following a 30 min incubation, a cholesterol emulsion containing 3 mg cholesterol and 2 μCi ^14C-cholesterol (3 ml) was delivered to each rat as a bolus via intestinal catheter, followed by 1 ml saline rinse. Animals were sacrificed 90 min later and ^14C-cholesterol levels in plasma, liver, intestinal contents, and intestinal wall were determined.

[7] = tested on: NPC1L1 orthologs of multiple species; assay: Binding to NPC1L1 orthologs of multiple species; conditions: NPC1L1 orthologs of the species tested
Experimental: as §1, §2

| SMILES | Ki (human NPC1L1 [2]) [µM] | Ki (monkey NPC1L1 [3]) [µM] | Ki (rat NPC1L1; Table 3, Rat) [µM] | Ki (human NPC1L1 [1]; Table 3, Human) [µM] | Ki (canine NPC1L1; Table 3, Dog) [µM] | Ki (rabbit NPC1L1; Table 3, Rabbit) [µM] | Ki (hamster NPC1L1; Table 3, Hamster) [µM] | cholesterol lowering Liver [5] [%] | cholesterol lowering Plasma [5] [%] | in vivo cholesterol lowering activity (cholesterol) | Ki (monkey NPC1L1 [4]; Table 3, Monkey) [µM] | Ki (mouse NPC1L1; Table 3, Mouse) [µM] | NPC1L1 binding activity [7] | other results |
| --- | --- | --- | --- | --- | --- | --- | --- | --- | --- | --- | --- | --- | --- | --- |
| Cc1cc(C)n2c1C=C1C=CC(CCC(=O)NCC#Cc3ccc(N4C(=O)[C@H](CC[C@H](O)c5ccc(F)cc5)[C@H]4c4ccc(O[C@@H]5O[C@H](C(=O)O)[C@@H](O)[C@H](O)[C@H]5O)cc4)cc3)=[N+]1[B-]2(F)F [compound 1, BODIPY-labeled glucuronidated ezetimibe] | 2.5 | 0.21 |  |  |  |  |  |  |  |  |  |  |  | Kd (rat NPC1L1; saturation binding, rat NPC1L1, 4 h): 0.058 µM; Kd (human NPC1L1 [1]; saturation binding, human NPC1L1, 4 h): 0.061 µM; Kd (canine NPC1L1; saturation binding, canine NPC1L1, 4 h): 0.052 µM; Kd (rabbit NPC1L1; saturation binding, rabbit NPC1L1, 4 h): 0.151 µM; Kd (hamster NPC1L1; saturation binding, hamster NPC1L1, 4 h): 0.049 µM; Kd (monkey NPC1L1 [4]; saturation binding, monkey NPC1L1, 4 h): 0.046 µM; Kd (mouse NPC1L1): could not be detected |
| COC(=O)[C@H]1O[C@@H](Oc2ccc([C@@H]3[C@@H](CC[C@H](O)c4ccc(F)cc4)C(=O)N3c3ccc(C#CCNC(=O)CCC4=[N+]5C(=Cc6c(C)cc(C)n6[B-]5(F)F)C=C4)cc3)cc2)[C@H](O)[C@@H](O)[C@@H]1O [compound 2] | 0.12 | 0.07 |  |  |  |  |  |  |  |  |  |  |  | increase in affinity versus compound 1 (monkey NPC1L1 [3]; monkey NPC1L1, methyl ester for carboxylic acid): 3 fold; Kd (mouse NPC1L1; read-out: Kd): 0.118 µM |
| O=C1[C@H](CC[C@H](O)c2ccc(F)cc2)[C@@H](c2ccc(O[C@@H]3O[C@H](CO)[C@@H](O[C@@H]4O[C@H](CO)[C@@H](O)[C@H](O)[C@H]4O)[C@H](O)[C@H]3O)cc2)N1c1ccc(F)cc1 [compound 5] |  |  | 0.542 | 2.15 | 1.28 | 1.9 | 1.2 | 86 | 36 | exhibiting in vivo cholesterol lowering activity | 0.37 | 7.7 |  |  |
| O=C1[C@H](CC[C@H](O)c2ccc(F)cc2)[C@@H](c2ccc(O)cc2)N1c1ccc(I)cc1 [compound 6] |  |  | 1.46 | 4.59 | 1.43 | 5 | 2.34 | 63 | 22 | exhibiting in vivo cholesterol lowering activity | 1.6 | 16.4 |  |  |
| O=C(CS[C@H]1C(=O)N(c2ccc(F)cc2)[C@@H]1c1ccc(O)cc1)c1ccc(F)cc1 [compound 7] |  |  | 2.1 |  | 2.3 | 5.6 | 4.28 | 96 | 47 | exhibiting in vivo cholesterol lowering activity |  | 21.6 | decreased | ED50 ([6]; rat, read-out: rat ED50, inhibition of cholesterol absorption): 0.036 mg/kg |
| COc1ccc(N2C(=O)[C@H](CCCc3ccccc3)[C@H]2c2ccc(O[C@@H]3O[C@H](COCc4ccccc4)[C@@H](OCc4ccccc4)[C@H](OCc4ccccc4)[C@H]3OCc3ccccc3)cc2)cc1 [compound 8] |  |  |  |  |  |  |  |  |  | no in vivo cholesterol lowering activity |  |  | total loss | Ki Rat NPC1L1 (rat NPC1L1; Table 3, Rat): In- active; Ki Human NPC1L1 (human NPC1L1 [1]; Table 3, Human): In- active; Ki Dog NPC1L1 (canine NPC1L1; Table 3, Dog): In- active; Ki Rabbit NPC1L1 (rabbit NPC1L1; Table 3, Rabbit): In- active; Ki Hamster NPC1L1 (hamster NPC1L1; Table 3, Hamster): In- active; rat ED50, inhibition of cholesterol absorption [6]: In- active; Ki Monkey NPC1L1 (monkey NPC1L1 [4]; Table 3, Monkey): In- active; Ki Mouse NPC1L1 (mouse NPC1L1; Table 3, Mouse): In- active |
